Results as given in patent US9018248B2, “Fatty acid derivatives of catechins and methods of their use” (Genesis Group Inc., priority 2010, dated 2015).
Marks after values point to notes of the source that are not given here.

Assays:
[1] = target: HCV NS3/4A protease (Hepatitis C virus genotype 1a, UniProt P27958); test: Inhibition against HCV protease; format: biochemical; conditions: for IC50: HCV NS3/4A protease 0.5 μg/ml, 30 min, room temperature; for HCV protease inhibitory activity relative to embelin: fold stronger than embelin
Chain of HCV NS3/4A protease (P27958 1027-1657): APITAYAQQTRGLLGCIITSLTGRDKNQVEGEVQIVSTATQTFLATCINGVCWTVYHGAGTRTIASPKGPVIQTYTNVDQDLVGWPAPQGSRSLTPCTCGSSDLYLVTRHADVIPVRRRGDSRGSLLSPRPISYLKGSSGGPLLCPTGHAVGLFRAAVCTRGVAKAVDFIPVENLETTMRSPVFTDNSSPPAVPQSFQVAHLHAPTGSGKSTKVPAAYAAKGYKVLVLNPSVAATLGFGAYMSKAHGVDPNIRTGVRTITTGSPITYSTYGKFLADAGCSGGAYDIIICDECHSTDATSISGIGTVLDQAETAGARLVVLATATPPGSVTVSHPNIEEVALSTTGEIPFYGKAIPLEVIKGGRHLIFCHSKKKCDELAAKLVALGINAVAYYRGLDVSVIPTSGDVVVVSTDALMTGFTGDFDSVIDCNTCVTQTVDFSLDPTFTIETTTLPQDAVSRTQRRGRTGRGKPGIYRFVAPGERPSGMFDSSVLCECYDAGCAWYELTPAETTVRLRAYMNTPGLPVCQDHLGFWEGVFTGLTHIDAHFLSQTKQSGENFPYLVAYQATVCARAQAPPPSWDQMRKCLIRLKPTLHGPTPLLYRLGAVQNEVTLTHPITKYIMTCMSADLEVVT
Chain of HCV NS3/4A protease (P27958 1658-1711): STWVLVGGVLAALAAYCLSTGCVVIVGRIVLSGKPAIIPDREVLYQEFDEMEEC
Description: An aliquot (2 μl) of test compounds dissolved in DMSO was added to each well of a 384-well black Assay plate, followed by addition of 8 μl of HCV NS3/4A protease solution (0.5 μg/ml). The reaction was initiated by adding 10 μl of freshly diluted substrate (100× dilution of a DMSO stocking solution). The mixture was incubated at room temperature for 30 min, and the fluorescence intensity was measured at 485 nm for excitation and 535 nm for emission by a TECAN GENios plate reader. […] All fluorescence values were corrected with a substrate blank. Samples were assayed at different concentrations to plot a concentration VS. inhibition percentage curve, and IC50 values were obtained from the curve for each sample. A known HCV protease inhibitor, embelin, was used as a reference. Discussion

[2] = DPPH radical scavenging capacity by EPR; conditions: test compounds 25 μM in ethanol, EPR after 1 min
Description: An ORAC (Oxygen Radical Absorbance Capacity) assay was carried out using a Fluostar Optima plate reader (BMG Labtech, Durham, N.C.) equipped with an incubator and two injector pumps. A modified method for lipophilic antioxidants was followed, in which randomly methylated cyclodextrin (RMCD) was used as water solubility enhancer, as described by Huang et al, J. Agric. Food Chem., 2002, 50, 1815-1821. Trolox standards (6.25-50 μM) and samples (0.25 μM) were dissolved in acetone/water (1:1, v/v) containing 7% RMCD. Fluorescein and […] [2,2′-azobis(2-aminopropane)dihydrochloride] were used as the probe and radical generator, respectively. Twenty microliters of trolox standard or test compound solutions (7% RMCD used as a control) were added into each well of a 96-well black microplate, followed by addition of fluorescein. The plate was incubated at 37° C. for 15 min and then AAPH in buffer was injected into the wells. The conditions used were as follows: 0.3 s position delay, 8 s orbital shaking before each cycle with 4 mm width, 210 s cycle time, and 25 cycles. Fluorescence was measured at an excitation wavelength of 485 nm and emission of 520 nm. A standard curve was plotted and ORAC values for test compounds were obtained as mol of trolox equivalents (TE) per mol of test compound. (3b) Reducing Power The reducing power of EGCG and its derivatives (compounds 1a-1c) was determined according to Oyaizu (1986). One milliliter of test compounds (1 mM in 95% ethanol) was mixed with 2.5 ml of phosphate buffer solution (PBS, 0.2 M, pH 6.6) and 2.5 ml of a 1% solution of potassium ferricyanide, K3Fe(CN)6. The mixture was incubated at 50° C. for 20 min. […] The content was mixed well and the absorbance was recorded at 700 nm. Higher absorbance of the reaction mixture indicates greater reducing power. […] (3c) Metal Chelation The metal chelation capacity was measured following a procedure by Decker E. A. et al., J. Agric. […] The absorbance was measured afterwards at 562 nm. A blank without ferrozine was run for each compound, since the antioxidant-Fe^2+ complex gives a colour that might interfere with the absorbance reading. Metal chelation capacity was calculated using the following equation: % chelation=[1−(Abs.sample−Abs.blank)/Abs.control]×100 where, control was devoid of test compounds, while blank contained no ferrozine. (3d) DPPH Antioxidant activity of the lipophilic EGCG derivatives was ALSO evaluated as DPPH (1,1-diphenyl-2-picrylhydrazyl) radical scavenging capacity using EGCG as the reference. DPPH scavenging capacity of test compounds was determined by EPR (electron paramagnetic resonance) according to Madhujith and Shahidi (16) with slight modifications. […] The spectrum was recorded after 1 min. […]

[3] = Oil/water emulsion (β-carotene/linoleate) bleaching; conditions: test compounds 1 mM in ethanol, 50° C., 105 min
Description: Ten milligrams of β-carotene were dissolved in 10 ml of chloroform. A 1.2 ml portion of this solution was transferred into a round-bottom flask containing 40 mg of linoleic acid and 400 mg of Tween 40. A blank without β-carotene was also prepared (40 mg of linoleic acid+400 mg of Tween 40). After removal of chloroform under a nitrogen stream, 100 ml of oxygenated distilled water were added to the flask and the mixture was stirred vigorously. Aliquots (4.5 ml) of the above emulsion were transferred into a series of tubes containing 0.5 ml of test compounds (1 mM in ethanol) or ethanol as control. A mixture of blank (without β-carotene) was prepared for each sample. The tubes were vortexed and the zero time absorbance was read immediately at 470 nm. The tubes are kept in a water bath at 50° C. with gentle shaking, and measurement of absorbance was continued over a 105-min period at intervals of 15 min. Blank-corrected absorbance was obtained and plotted against time for kinetic curve of β-carotene bleaching. Antioxidant activity (AA) of test compounds in protecting β-carotene/linoleic acid oxidation was calculated using the following equation. AA %=[1−(A0−At)/(A0^o−At^o)]×100 where, A0 and At are corrected absorbance values for test samples measured at zero time and after incubation, respectively; while A0^o and At^o are corrected absorbance values for control at zero time and after incubation, respectively.

Compound | IC50 [1] [nM] | HCV protease inhibitory activity relative to embelin [1] | DPPH scavenging [2] [mmol trolox eq./mol] | Inhibition of β-carotene bleaching [3]
CCCCCCCCCCCCCCCCCC(=O)Oc1cc(C(=O)OC2Cc3c(O)cc(O)cc3OC2c2cc(OC(=O)CCCCCCCCCCCCCCCCC)c(O)c(OC(=O)CCCCCCCCCCCCCCCCC)c2)cc(OC(=O)CCCCCCCCCCCCCCCCC)c1O (stereo not drawn) [Compound 1a, EGCG stearate] | 130 | approximately 80 fold | 5.85 | 16.8 ± 4.19^b %
CCC=CCC=CCC=CCC=CCC=CCCCC(=O)Oc1cc(C(=O)OC2Cc3c(O)cc(O)cc3OC2c2cc(OC(=O)CCCC=CCC=CCC=CCC=CCC=CCC)c(O)c(OC(=O)CCCC=CCC=CCC=CCC=CCC=CCC)c2)cc(OC(=O)CCCC=CCC=CCC=CCC=CCC=CCC)c1O (stereo not drawn) [Compound 1b] | 6 | 1700 fold | 4.66 | 28.0 ± 0.17^a %
CCC=CCC=CCC=CCC=CCC=CCC=CCCC(=O)Oc1cc(C(=O)OC2Cc3c(O)cc(O)cc3OC2c2cc(OC(=O)CCC=CCC=CCC=CCC=CCC=CCC=CCC)c(O)c(OC(=O)CCC=CCC=CCC=CCC=CCC=CCC=CCC)c2)cc(OC(=O)CCC=CCC=CCC=CCC=CCC=CCC=CCC)c1O (stereo not drawn) [Compound 1c] | 6 | 1700 fold | 5.09 | 32.1 ± 4.48^a %
O=C(O[C@@H]1Cc2c(O)cc(O)cc2O[C@@H]1c1cc(O)c(O)c(O)c1)c1cc(O)c(O)c(O)c1 [EGCG, Epigallocatechin gallate, reference compound] | > 200000 |  | 3.13 | 7.90 ± 0.64^c %
